Where two headings read alike, the source gives them in different places.
Experiments:
[1] = molecular target: Hck tyrosine kinase (Homo sapiens (Human), UniProt P08631); experiment: in vitro Hck tyrosine kinase inhibition; type: biochemical; conditions: read-out: % inhibition against Hck
[2] = molecular target: Fgr tyrosine kinase (Homo sapiens (Human), UniProt P09769); experiment: in vitro Fgr tyrosine kinase inhibition; type: biochemical; conditions: read-out: % inhibition against Fgr
[3] = molecular target: Lyn tyrosine kinase (Homo sapiens (Human), UniProt P07948); experiment: in vitro Lyn tyrosine kinase inhibition; type: biochemical; conditions: read-out: % inhibition against Lyn
[4] = molecular target: DDR1 tyrosine kinase (Homo sapiens (Human), UniProt Q08345); experiment: in vitro DDR1 tyrosine kinase inhibition (GST-fused kinase domain); type: biochemical; conditions: read-out: % inhibition against DDR1
[5] = molecular target: DDR2 tyrosine kinase (Homo sapiens (Human), UniProt Q16832); experiment: in vitro DDR2 tyrosine kinase inhibition (GST-fused kinase domain); type: biochemical; conditions: read-out: % inhibition against DDR2
[6] = tested on: TNF-α synthesis in J744A.1 macrophages; experiment: inhibition of TNF-α synthesis in LPS-activated macrophages (ELISA); type: cell-based; conditions: Macrophage, 6 h, read-out: Inhibition (%) of TNF-α synthesis
[7] = tested on: NO synthesis in J744A.1 macrophage; experiment: inhibition of nitric oxide (NO) synthesis in LPS-activated macrophages (Griess reagent); type: cell-based; conditions: 24 h, read-out: Inhibition (%) of NO synthesis
[8] = tested on: α-smooth muscle actin protein expression in skin fibroblast cells; experiment: inhibition of α-smooth muscle actin expression in fibroblast activated by type I collagen and TGF-β1 (western blotting); type: cell-based, Balb/C mouse; conditions: Mus musculus, read-out: Inhibition (%) of α-smooth muscle actin increase
Method in brief: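 α-Smooth muscle actin protein was detected by western blotting with chemiluminescence on X-ray film. Levels were quantified by densitometry of the band.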

[9] = tested on: oxazolone-induced skin inflammation of Balb/C mouse ears; experiment: mouse skin inflammatory model induced by oxazolone (ear thickness); type: in vivo
Method in brief: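 Oxazolone was used to induce skin inflammation in the ears of 8-week-old Balb/C mice. Ear thickness was measured by caliper before induction, again at 36 h to capture inflammatory swelling, and averaged per group (n=4).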

[10] = tested on: house mite allergic substance-induced asthma in mice; experiment: house mite allergen asthma animal model; type: in vivo; conditions: for mucin in lung tissue (periodic Schiff staining): 20 ul intratracheal, LCB 03-0110 0.1%, Budesonide 0.03%
[11] = tested on: TNCB-induced atopic dermatitis in Nc/Nga mice; conditions: 0.1% transdermal every day for two weeks
[12] = tested on: full excisional ear wounds in New Zealand white rabbits; conditions: 0.1% topical
[13] = tested on: IL-12 synthesis in J774A.1 macrophage; experiment: cells; conditions: Mus musculus, J774.A1, read-out: inhibition of LPS-induced IL-12 synthesis
[14] = tested on: RBL-2H3 mast cells; experiment: cells; conditions: Rattus norvegicus, RBL-2H3, read-out: inhibition of hexosaminidase release (degranulation)
[15] = molecular target: c-Src tyrosine kinase (Homo sapiens (Human), UniProt P12931); experiment: in vitro c-Src tyrosine kinase inhibition (32P-ATP, poly(D4Y)n substrate); type: biochemical; conditions: 1 uM compound; read-out: % inhibition against c-Src
[16] = tested on: mouse skin fibroblast; experiment: inhibition of migration of activated fibroblast (scratch wound); type: cell-based; conditions: 0.5 uM compound, 10 ng/ml TGF-β1, 24 hours, read-out: Inhibition (%) of migration of activated fibroblast
Method in brief: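 Scratch wound was made on a fibroblast monolayer, then cells were kept in DMEM with 10 ng/ml TGF-β1 at 37° C for 24 hours. After formalin fixation and crystal violet staining, cells that had moved into the wound were counted at 100× in five random fields and averaged.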

[17] = 0.5 uM compound, 10 ng/ml TGF-β1, 48 hours, type I collagen
[18] = 20 ul of 0.1% compound topical on ear, 36 hours after oxazolone

Fgr tyrosine kinase, sequence (P09769 whole entry): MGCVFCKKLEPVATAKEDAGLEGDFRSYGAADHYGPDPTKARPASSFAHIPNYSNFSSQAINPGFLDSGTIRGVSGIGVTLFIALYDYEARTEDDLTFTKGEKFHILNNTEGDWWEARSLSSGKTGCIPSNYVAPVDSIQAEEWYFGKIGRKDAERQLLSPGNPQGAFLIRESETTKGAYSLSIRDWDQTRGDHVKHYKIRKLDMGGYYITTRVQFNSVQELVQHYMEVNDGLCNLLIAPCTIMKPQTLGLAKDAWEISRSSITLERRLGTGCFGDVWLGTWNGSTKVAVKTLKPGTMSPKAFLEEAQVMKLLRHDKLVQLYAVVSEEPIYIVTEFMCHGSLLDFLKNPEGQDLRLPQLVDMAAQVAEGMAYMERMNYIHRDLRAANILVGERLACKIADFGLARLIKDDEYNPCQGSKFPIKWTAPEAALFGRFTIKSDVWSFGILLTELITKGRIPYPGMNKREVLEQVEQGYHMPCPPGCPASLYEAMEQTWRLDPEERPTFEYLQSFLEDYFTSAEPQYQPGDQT
DDR2 tyrosine kinase, sequence (Q16832 563-849): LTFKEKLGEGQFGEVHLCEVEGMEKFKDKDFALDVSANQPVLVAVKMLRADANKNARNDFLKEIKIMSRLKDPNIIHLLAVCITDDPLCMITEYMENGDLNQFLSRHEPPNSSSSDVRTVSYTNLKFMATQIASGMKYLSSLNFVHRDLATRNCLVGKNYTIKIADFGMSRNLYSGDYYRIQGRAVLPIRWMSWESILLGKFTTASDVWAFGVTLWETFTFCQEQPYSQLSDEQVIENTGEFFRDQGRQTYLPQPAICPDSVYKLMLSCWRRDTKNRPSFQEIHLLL
Lyn tyrosine kinase, sequence (P07948 whole entry, the tested form may be a part): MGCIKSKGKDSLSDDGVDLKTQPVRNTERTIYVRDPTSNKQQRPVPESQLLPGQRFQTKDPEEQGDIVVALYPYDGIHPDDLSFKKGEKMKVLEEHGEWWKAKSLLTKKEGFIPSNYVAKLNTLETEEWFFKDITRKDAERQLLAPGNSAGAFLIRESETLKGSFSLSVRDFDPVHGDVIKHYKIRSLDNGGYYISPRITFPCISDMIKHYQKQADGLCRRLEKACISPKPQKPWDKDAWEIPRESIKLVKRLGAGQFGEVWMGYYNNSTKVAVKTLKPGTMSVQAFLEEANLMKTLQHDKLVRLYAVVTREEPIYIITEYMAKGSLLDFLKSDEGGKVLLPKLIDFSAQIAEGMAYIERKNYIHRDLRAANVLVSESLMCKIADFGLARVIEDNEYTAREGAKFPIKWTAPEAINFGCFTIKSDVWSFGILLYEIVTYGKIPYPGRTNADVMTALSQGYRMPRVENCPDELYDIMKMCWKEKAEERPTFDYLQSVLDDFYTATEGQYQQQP
DDR1 tyrosine kinase, sequence (Q08345 610-905): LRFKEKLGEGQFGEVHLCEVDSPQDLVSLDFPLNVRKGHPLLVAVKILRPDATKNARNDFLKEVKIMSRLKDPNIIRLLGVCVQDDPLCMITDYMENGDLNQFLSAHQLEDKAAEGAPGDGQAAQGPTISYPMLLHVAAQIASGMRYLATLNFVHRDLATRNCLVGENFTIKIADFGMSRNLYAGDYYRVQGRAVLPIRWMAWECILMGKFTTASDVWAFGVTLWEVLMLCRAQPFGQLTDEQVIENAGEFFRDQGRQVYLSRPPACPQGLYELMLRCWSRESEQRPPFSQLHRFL
Hck tyrosine kinase, sequence (P08631 whole entry): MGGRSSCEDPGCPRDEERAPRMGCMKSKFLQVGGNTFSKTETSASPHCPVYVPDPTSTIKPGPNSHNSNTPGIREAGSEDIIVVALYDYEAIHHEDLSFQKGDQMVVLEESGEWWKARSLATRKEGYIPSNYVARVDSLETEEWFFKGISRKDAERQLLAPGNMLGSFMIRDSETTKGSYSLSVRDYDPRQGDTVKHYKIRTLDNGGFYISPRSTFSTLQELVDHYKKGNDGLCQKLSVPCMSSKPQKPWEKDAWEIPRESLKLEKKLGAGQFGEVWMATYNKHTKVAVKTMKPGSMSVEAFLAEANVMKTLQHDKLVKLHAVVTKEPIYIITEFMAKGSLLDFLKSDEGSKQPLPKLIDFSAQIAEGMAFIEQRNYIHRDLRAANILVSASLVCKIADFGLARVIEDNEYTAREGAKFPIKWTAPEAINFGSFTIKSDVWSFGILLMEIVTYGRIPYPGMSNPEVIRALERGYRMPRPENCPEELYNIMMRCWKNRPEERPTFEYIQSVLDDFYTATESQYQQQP
c-Src tyrosine kinase, sequence (P12931 whole entry, looked up): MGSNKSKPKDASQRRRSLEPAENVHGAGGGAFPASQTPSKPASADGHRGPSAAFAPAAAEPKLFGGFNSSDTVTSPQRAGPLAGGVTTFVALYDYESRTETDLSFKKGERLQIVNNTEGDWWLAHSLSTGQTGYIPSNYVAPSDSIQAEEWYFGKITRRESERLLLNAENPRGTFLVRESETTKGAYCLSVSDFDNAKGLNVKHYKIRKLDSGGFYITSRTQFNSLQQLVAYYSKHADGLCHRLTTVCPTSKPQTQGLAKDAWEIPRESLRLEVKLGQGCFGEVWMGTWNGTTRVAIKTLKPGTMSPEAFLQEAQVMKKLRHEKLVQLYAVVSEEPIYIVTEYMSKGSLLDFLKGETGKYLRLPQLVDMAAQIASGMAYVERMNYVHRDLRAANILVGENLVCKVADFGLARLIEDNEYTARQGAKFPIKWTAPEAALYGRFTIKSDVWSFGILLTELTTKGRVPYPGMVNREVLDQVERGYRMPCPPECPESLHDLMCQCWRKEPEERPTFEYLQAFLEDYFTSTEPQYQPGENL

| Structure (SMILES) | inhibition at 10 µM [6] [%] | inhibition at 10 µM [7] [%] | mucin in lung tissue (periodic Schiff staining) [10] | inhibition at 1 µM [15] [%] | inhibition at 1 µM ([1]; 1 uM compound) [%] | inhibition at 1 µM ([2]; 1 uM compound) [%] | inhibition at 1 µM ([3]; 1 uM compound) [%] | inhibition at 1 µM ([4]; 1 uM compound) [%] | inhibition at 1 µM ([5]; 1 uM compound) [%] | inhibition at 0.5 µM [8, 17] [%] | inhibition at 0.5 µM [16] [%] | Inhibition (%) of increase of ear thickness [9, 18] [%] | further results |
| --- | --- | --- | --- | --- | --- | --- | --- | --- | --- | --- | --- | --- | --- |
| Oc1cccc(Nc2ccnc3cc(-c4cccc(CN5CCOCC5)c4)sc23)c1 [LCB 03-0110, 3-(2-(3-(morpholinomethyl)phenyl)thieno[3,2-b]pyridin-7-ylamino)phenol] | 64 | 97 | suppressed mucin synthesis similarly to the positive control | – | – | – | – | – | – | – | – | – | inhibition at 1 µM [1]: > 80%; inhibition at 1 µM [2]: > 80%; inhibition at 1 µM [3]: > 90%; inhibition at 1 µM [4]: > 90%; inhibition at 1 µM [5]: > 90%; inhibition at 0.5 µM ([8]; 48 h): 82%; Inhibition (%) of increase of ear thickness ([9]; mouse, in vivo): 72%; eosinophil penetration into lung tissue ([10]; 20 ul of 0.1% intratracheal): suppressed eosinophil penetration into lung tissue; eotaxin in BALF ([10]; 20 ul of 0.1% intratracheal): suppression of eotaxin; reduction of epidermal thickness compared to the TNCB group [11]: more than 60%; reduction of mast cell count compared to the TNCB group [11]: approximately 25%; reduction of serum IgE level compared to the TNCB group [11]: more than 20%; reduction of transepidermal water loss (TEWL) compared to the TNCB group [11]: more than 30%; wound closing rate ([12]; 150 μL per wound, every three days, versus carrier solution): closed at a higher rate; macrophages (F4/80) and activated myoblast cells (alpha smooth muscle actin) in wound tissue ([12]; three days after wounding): suppressed the activation of macrophages and myoblast cells with a statistical significance; inhibition at 1 µM [13]: ~100%; inhibition at 0.3 µM [14]: ≥ 80% |
| CCCC1O[C@@H]2C[C@H]3[C@@H]4CCC5=CC(=O)C=C[C@]5(C)[C@H]4[C@@H](O)C[C@]3(C)[C@]2(C(=O)CO)O1 (stereo partly shown) [Budesonide, reference compound] | – | – | decreased the extent of the staining | – | – | – | – | – | – | – | – | – | – |
| CN1CCN(Cc2ccc(-c3cc4ncnc(Nc5cccc(O)c5)c4s3)s2)CC1 [LCB 03-0092, 3-(6-(5-((4-methylpiperazin-1-yl)methyl)thiophene-2-yl)thieno[3,2-d]pyrimidin-4-ylamino)phenol] | 64 | 90 | – | > 60 | > 60 | > 50 | > 60 | > 80 | > 80 | 37 | 28 | 47 | – |
| CCNCc1cccc(-c2cc3nccc(Nc4cccc(O)c4)c3s2)c1 [LCB 03-0112, 3-(2-(3-((ethylamino)methyl)phenyl)thieno[3,2-b]pyridin-7-ylamino)phenol] | 46 | 81 | – | > 80 | > 80 | > 80 | > 80 | > 80 | > 80 | 71 | 38 | 68 | – |

From US9062066B2, “Anti-inflammatory compound having inhibitory activity against multiple tyrosine kinases and pharmaceutical composition containing same” (KOREA INSTITUTE OF SCIENCE AND TECHNOLOGY, priority 2010, dated 2015)
